From patent US7148009B2, “Cancer drug screen based on cell cycle uncoupling” (The Johns Hopkins University, priority 1996, dated 2006)

How the values were obtained:
[1] = test system: HCT116 cells without (−/−) p21 genes; experiment: Apoptosis after drug treatment (phase contrast, H33258 staining, TUNEL), p21-deficient cells; type: cell-based, human
Description: (§1) HCT116 cells with (+/+) or without (−/−) p21 genes were generated by homologous recombination. Logarithmically-growing cells in McCoy's 5A medium with 10% fetal calf serum were treated with Adriamycin (0.2 ug/ml) for 90 hours. In FIG. 1b, the adherent cells were harvested by trypsinization and combined with cells floating in the media. After washing with Hanks Buffered Saline (HBS; Life Technologies), cells were resuspended in 40 ul HBS and added to 360 ul of a solution containing 0.7% NP-40, 4.7% formaldehyde and 11 ug/ml H133258 in phosphate buffered saline (PBS). Cells were then viewed under UV excitation and photographed with a Nikon Labophot microscope. In FIG. 1c, adherent cells were fixed in 1% formaldehyde, then incubated in the presence of exogenous terminal transferase and biotin-11-dUTP as previously described^7. Labeled cells were detected by immunoperoxidase staining (Vector).
Cells were grown, fixed, and stained as described in Example 1. Irradiation was delivered at 1 Gy/minute using a ^137Cs source. Apoptotic cells were recognized as condensed, punctate nuclei (examples in FIG. 1d) or ghosts with faintly stained, degrading nuclei. […] The error bars represent the Poisson standard deviation determined by taking the square root of counted events and converting it to percent abundance. All counting was done in a blinded fashion. The (+/−) cells contained one normal p21 allele and one allele deleted by homologous recombination^5.

HCT116 p21−/− cells = experiment: Cell cycle analysis by flow cytometry, p21-deficient cells; details: Adriamycin 0.2 ug/ml
HCT116 p21+/+ cells = experiment: Cell cycle analysis by flow cytometry, parental cells; details: Adriamycin 0.2 ug/ml
[2] = test system: HCT116 (+/−) cells, one normal p21 allele and one deleted; experiment: Apoptosis after drug treatment, heterozygous cells; type: cell-based, human; details: Adriamycin 0.2 ug/ml, etoposide 5 ug/ml, camptothecan 0.1 ug/ml
Description: as §1
(§2) Cells were grown, fixed, and stained as described in Example 1. Irradiation was delivered at 1 Gy/minute using a ^137Cs source. Apoptotic cells were recognized as condensed, punctate nuclei (examples in FIG. 1d) or ghosts with faintly stained, degrading nuclei. At least 200 cells were counted for each time point, and the experiment was repeated with results virtually identical to those shown. The error bars represent the Poisson standard deviation determined by taking the square root of counted events and converting it to percent abundance. All counting was done in a blinded fashion. The (+/−) cells contained one normal p21 allele and one allele deleted by homologous recombination^5.

[3] = test system: HCT116 cells with (+/+) p21 genes; experiment: Apoptosis after drug treatment (phase contrast, H33258 staining, TUNEL), parental cells; type: cell-based, human; details: for cell fate (apoptosis) by phase contrast microscopy and H33258 staining: etoposide 5 ug/ml, camptothecan 0.1 ug/ml, time course
Description: as §1, §2

[4] = p21−/− cells, Adriamycin 0.2 ug/ml, 90 hours
[5] = longer treatments (beyond 30 hours)

For `COc1cccc2c1C(=O)c1c(O)c3c(c(O)c1C2=O)C[C@@](O)(C(=O)CO)C[C@@H]3O[C@H]1C[C@H](N)[C@H](O)[C@H](C)O1` [Adriamycin], the “response in a second, independently isolated p21−/− clone” value ([1]; Adriamycin 0.2 ug/ml, time course of apoptosis) was “identical”, the “TUNEL staining of DNA breaks characteristic of apoptosis” value [1, 4] was “stained intensely by TUNEL” and the “cell morphology, phase contrast microscopy” value [1, 4] was “shrank, rounded, and detached from the dish, suggesting apoptosis”. For the same compound, the “nuclear morphology after H33258 staining” value [1, 4] was “classic condensed and punctate nuclear morphology”, the “cell cycle distribution by flow cytometry” value (HCT116 p21−/− cells; 30 hours of exposure) was “a nearly pure population of G2-arrested cells was observed” and the “DNA content by flow cytometry” value (HCT116 p21−/− cells; [5]) was “began to accumulate DNA in excess of 4C, then died”. The “cell cycle distribution by flow cytometry” value (HCT116 p21+/+ cells; 30 hours of exposure) was “blocked in G1 and G2 phases, with few cells in S”, the flow cytometry profile (HCT116 p21+/+ cells; [5]) was “remained largely unchanged” and the “kinetics of apoptosis compared with parental cells” value [2] was “behaved similarly to the parental cells”. The “cell morphology, phase contrast microscopy” value ([3]; Adriamycin 0.2 ug/ml, 90 hours) was “remained attached to the plate and appeared morphologically normal” and the “nuclear morphology after H33258 staining” value ([3]; Adriamycin 0.2 ug/ml, 90 hours) was “homogeneous and round”.
In the case of `CC[C@@]1(O)C(=O)OCc2c1cc1n(c2=O)Cc2cc3ccccc3nc2-1` [camptothecan], the “kinetics of apoptosis compared with parental cells” value [2] was “revealed a heterozygote effect” and the “cell fate (apoptosis) by phase contrast microscopy and H33258 staining” value (“cell fate (apoptosis)” for short) [3] was “eventually underwent apoptosis, but this was significantly delayed compared to p21-deficient cells”.
In the case of `COc1cc([C@@H]2c3cc4c(cc3[C@@H](O[C@@H]3O[C@@H]5CO[C@@H](C)O[C@H]5[C@H](O)[C@H]3O)[C@H]3COC(=O)[C@H]23)OCO4)cc(OC)c1O` [etoposide], the “cell fate (apoptosis)” value ([1]; p21−/− cells, etoposide 5 ug/ml, time course) was “died”, the “kinetics of apoptosis compared with parental cells” value [2] was “behaved similarly to the parental cells” and the “cell fate (apoptosis)” value [3] was “remained healthy”.
